Experimental data published in ChEMBL document CHEMBL4725390, “Asymmetrically Substituted Quadruplex-Binding Naphthalene Diimide Showing Potent Activity in Pancreatic Cancer Models” (ACS Med Chem Lett, 2020).
Activity calls are given as the source filed them. The rule behind the calls is not given here.

Columns and labels:
[1] = system: MIA PaCa-2; experiment: Antitumor activity against human MIAPaCa2 cells xenografted in mouse assessed as mean tumor volume at 1 mg/kg, iv administered twice per week for 28 days and measured at day 28 by Caliper method (reference value: 0.45 +/- 0.18 cm3); assay type: functional; details: time 28 day
[2] = system: BXPC-3; experiment: Antiproliferative activity against human BxPC3 cells assessed as growth inhibition after 96 hrs by SRB assay; assay type: functional
[3] = Downregulation of hTERT mRNA expression in human MIAPaCa2 cells at 40 nM after 6 hrs by RNA sequencing analysis relative to control; assay type: functional, MIA PaCa-2
[4] = system: MIA PaCa-2; experiment: Potency index, ratio of 2,7-bis(3-morpholinopropyl)-4-((2-(pyrrolidin-1-yl)ethyl)amino)benzo[lmn][3,8]phenanthroline-1,3,6,8(2H,7H)-tetraone IC50 to test compound IC50 for human MIAPaCa2 cells measured after 96 hrs by SRB assay; assay type: functional
[5] = Downregulation of Bcl2 mRNA expression in human MIAPaCa2 cells at 40 nM after 6 hrs by RNA sequencing analysis relative to control; assay type: functional, MIA PaCa-2
[6] = Half life in rat at 1 mg/kg, iv administered as single dose; assay type: ADME, organism-based; details: in vivo
[7] = system: MIA PaCa-2; experiment: Antitumor activity against human MIAPaCa2 cells xenografted in mouse assessed as mean tumor volume at 1 mg/kg, iv administered once per week for 28 days and measured at day 53 by Caliper method (reference value: 1.60 +/- 0.44 cm3); assay type: functional; details: time 28 day
[8] = Toxicity in mouse xenografted with human MIAPaCa2 cells assessed as drug tolerability at 1 mg/kg, iv administered twice per week for 28 days; assay type: organism-based; details: in vivo, 672 h, time 28 day
[9] = system: MIA PaCa-2; experiment: Downregulation of Wnt signaling pathway related gene expression in human MIAPaCa2 cells at 40 nM after 24 hrs by RNA sequencing analysis; assay type: functional, cell-based
[10] = AUC (infinity) in mouse xenografted with human MIAPaCa2 cells at 0.96 mg/kg, iv administered as single dose; assay type: ADME, organism-based; parameters: time infinity, route intravenous, dose 0.96 mg/kg; details: in vivo
[11] = system: MIA PaCa-2; experiment: Antitumor activity against human MIAPaCa2 cells xenografted in mouse assessed as change in tumor volume at 15 mg/kg, iv administered twice per week for 28 days and measured at day 53 by Caliper method relative to control; assay type: functional; details: time 28 day
[12] = Downregulation of hTERT mRNA expression in human MIAPaCa2 cells at 40 nM after 24 hrs by RNA sequencing analysis relative to control; assay type: functional, MIA PaCa-2
[13] = system: Quadruplex DNA; experiment: Binding affinity to G4 quadruplex DNA in human PANC1 cells assessed as BG4 foci formation at 400 to 800 nM after 24 hrs by immunofluorescence based confocal microscopic analysis; assay type: cell-based; details: PANC-1, dose nM 400-800, time 24.0 hrs
[14] = Downregulation of DVL1 mRNA expression in human MIAPaCa2 cells at 40 nM after 24 hrs by RNA sequencing analysis relative to control; assay type: functional, MIA PaCa-2
[15] = Apparent volume of distribution in mouse xenografted with human MIAPaCa2 cells at 0.96 mg/kg, iv administered as single dose; assay type: ADME, organism-based; details: in vivo, read-out: Vz
[16] = system: Quadruplex DNA; experiment: Binding affinity to G4 quadruplex DNA in human PANC1 cells assessed as BG4 foci formation at 800 nM after 6 hrs by immunofluorescence based confocal microscopic analysis; assay type: cell-based; details: PANC-1
[17] = system: Mus musculus; experiment: Up regulation of cleaved PARP protein expression in mouse xenografted with human MIAPaCa2 cells at 1 mg/kg, iv administered twice per week for 28 days measured on day 28 by Western blot analysis; assay type: functional, organism-based; details: time 28.0 day
[18] = Downregulation of DVL1 mRNA expression in human MIAPaCa2 cells at 40 nM after 6 hrs by RNA sequencing analysis relative to control; assay type: functional, MIA PaCa-2
[19] = Volume of distribution at steady state in mouse xenografted with human MIAPaCa2 cells at 0.96 mg/kg, iv administered as single dose; assay type: ADME, organism-based; details: in vivo, read-out: Vdss
[20] = system: MIA PaCa-2; experiment: Downregulation of Rap1 signaling pathway related gene expression in human MIAPaCa2 cells at 40 nM after 6 hrs by RNA sequencing analysis; assay type: functional, cell-based
[21] = system: MIA PaCa-2; experiment: Downregulation of hippo signaling pathway related gene expression in human MIAPaCa2 cells at 40 nM after 6 hrs by RNA sequencing analysis; assay type: functional, cell-based
[22] = system: Mus musculus; experiment: Effect on hTERT expression in mouse xenografted with human MIAPaCa2 cells at 1 mg/kg, iv administered once per week for 28 days and measured on day 28 by Western blot analysis; assay type: functional, organism-based; details: time 28.0 day
[23] = Antitumor activity in KPC-induced PDAC mouse model expressing active KRASG12D and mutant p53R172H assessed as median survival time at 1 mg/kg, iv administered once per week up to 3 weeks (reference value: 12 days); assay type: functional
[24] = system: MIA PaCa-2; experiment: Downregulation of NF-kappaB signalling pathway related gene expression in human MIAPaCa2 cells at 40 nM after 6 hrs by RNA sequencing analysis; assay type: functional, cell-based
[25] = Toxicity in mouse xenografted with human MIAPaCa2 cells assessed as effect on cardiac clinical signs at 1 mg/kg, iv administered once per week for 28 days; assay type: organism-based; details: in vivo, 672 h, time 28 day
[26] = system: MIA PaCa-2; experiment: Antitumor activity against human MIAPaCa2 cells xenografted in mouse assessed as change in tumor volume at 1 mg/kg, iv administered twice per week for 28 days and measured at day 28 by Caliper method relative to control; assay type: functional; details: time 28 day
[27] = system: Mus musculus; experiment: Down regulation of MAPK11 expression in mouse xenografted with human MIAPaCa2 cells at 1 mg/kg, iv administered twice per week for 28 days and measured on day 28 by Western blot analysis; assay type: functional, organism-based; details: time 28.0 day
[28] = system: MIA PaCa-2; experiment: Downregulation of axon guidance related gene expression in human MIAPaCa2 cells at 40 nM after 24 hrs by RNA sequencing analysis; assay type: functional, cell-based
[29] = Toxicity in mouse xenografted with human MIAPaCa2 cells assessed as effect on neuronal clinical signs at 1 mg/kg, iv administered twice per week for 28 days; assay type: organism-based; details: in vivo, 672 h, time 28 day
[30] = Downregulation of AXIN1 mRNA expression in human MIAPaCa2 cells at 40 nM after 24 hrs by RNA sequencing analysis relative to control; assay type: functional, MIA PaCa-2
[31] = system: PANC-1; experiment: Antiproliferative activity against human PANC1 cells assessed as growth inhibition after 96 hrs by SRB assay; assay type: functional
[32] = system: MIA PaCa-2; experiment: Downregulation of Rap1 signaling pathway related gene expression in human MIAPaCa2 cells at 40 nM after 24 hrs by RNA sequencing analysis; assay type: functional, cell-based
[33] = system: MIA PaCa-2; experiment: Downregulation of TNF signaling pathway related gene expression in human MIAPaCa2 cells at 40 nM after 6 hrs by RNA sequencing analysis; assay type: functional, cell-based
[34] = Toxicity in mouse xenografted with human MIAPaCa2 cells assessed as effect on neuronal clinical signs at 1 mg/kg, iv administered once per week for 28 days; assay type: organism-based; details: in vivo, 672 h, time 28 day
[35] = Downregulation of AXIN1 mRNA expression in human MIAPaCa2 cells at 40 nM after 6 hrs by RNA sequencing analysis relative to control; assay type: functional, MIA PaCa-2
[36] = Toxicity in mouse xenografted with human MIAPaCa2 cells assessed as drug tolerability at 1 mg/kg, iv administered once per week for 28 days; assay type: organism-based; details: in vivo, 672 h, time 28 day
[37] = Clearance in mouse xenografted with human MIAPaCa2 cells at 0.96 mg/kg, iv administered as single dose; assay type: ADME, organism-based; details: in vivo

## O=C1c2cc(-c3ccc(CN4CCCC4)cc3)c3c4c(cc(NCCN5CCCC5)c(c24)C(=O)N1CCCN1CCOCC1)C(=O)N(CCCN1CCOCC1)C3=O [QN-302]
[1]
  Activity: 0.06 cm3
[2]
  GI50: 2.6 nM
[3]
  log2FC: 2.29
[4]
  Ratio IC50: 10
[5]
  log2FC: 0.58
[6]
  half-life: 36 h
[7]
  Activity: 0.17 cm3
[8]
  Activity: Non-Toxic
[9]
  inhibition: Active
[10]
  AUC(0-inf): 8270 ng·h/mL
[11]
  Activity: -78.1%
[12]
  log2FC: 1.02
[13]
  Activity: inactive
[14]
  log2FC: 0.77
[15]
  Vd: 6.9 L/kg
[16]
  Activity: inactive
[17]
  Activity: Active
[18]
  log2FC: 1.48
[19]
  Vd: 1.2 L/kg
[20]
  inhibition: Active
[21]
  inhibition: Active
[22]
  Activity: inactive
[23]
  MST: 24 days
[24]
  inhibition: Active
[25]
  Activity: Non-Toxic
[26]
  Activity: -86.6%
[27]
  inhibition: Active
[28]
  inhibition: Active
[29]
  Activity: Non-Toxic
[30]
  log2FC: 0.39
[31]
  GI50: 1.4 nM
[32]
  inhibition: Active
[33]
  inhibition: Active
[34]
  Activity: Non-Toxic
[35]
  log2FC: 1.59
[36]
  Activity: Non-Toxic
[37]
  clearance: 2.2 mL/min/kg
